These are literature values, as cited in patent publication US10190039B2, “Synthetic acid compositions alternatives to conventional acids in the oil and gas industry” (priority 2014, dated 2019).

For this series the following is noted: death in 2-3 minutes.

Turning to `Cl` [hydrogen chloride gas, hydrogen chloride], the “Level at which death can occur” value is listed as 1300-2000 ppm.
